Each compound was assayed on MIA PaCa-2 cells (assay: MIA PaCa2 cell-based assay (1,536-well high-content imaging ALDEFLUOR assay)). Conditions: Homo sapiens, 0.5 h, ALDEFLUOR BAAA substrate 500 nM, 30 minutes.
Design: species or system human
Procedure: Example 359. MIA PaCa2 Cell-Based Assay (In Vitro Assay)
1,536-Well High-Content Imaging ALDEFLUOR Assay
The ALDEFLUOR™ kit was purchased from […] Technologies (Vancouver, Canada; #01700). MIA PaCa-2 cells (5 μL; 1,000 cells/well) were dispensed into black, optical quality (cyclic olefin copolymer) clear bottom, medium binding TC treated 1,536-well plates (Aurora Microplates, Whitefish Mont.) using a Multidrop Combi dispenser (ThermoFisher) and incubated overnight (37° C., 5% CO2, 85% RH). Media (RPMI 1640 (Life Technologies, Carlsbad, Calif.), supplemented with 2 mM L-Glutamine (Life Technologies), 10% HyClone™ fetal bovine serum (FBS, GE Healthcare, Piscataway, N.J.) and 100 U/mL penicillin and 100 μg/mL streptomycin (Life Technologies)) was subsequently removed by centrifuging plates upside down using a plate adaptor to collect media. A solution of BAAA substrate ([…] Technologies) and Hoechst 33342 (ThermoFisher, final concentrations of 500 nM and 0.5 nM, respectively) in ALDEFLUOR™ buffer ([…] Technologies #01700) was dispensed onto cells using a Multidrop Combi followed by immediate transfer (23 nL) of compound or control solutions using a Wako Pin-tool (final percentage of DMSO in the cell plates was 0.5%). Unless otherwise noted, all compounds were assayed as 16-point dilutions spanning a final concentration range of 1.4 nM to 47.8 μM. The neutral and positive assay controls were DMSO and DEAB (4.6 μM), respectively. Cells were incubated for 30 minutes or the indicated amount of time at 37° C., 5% CO2, 85% RH to allow the conversion of BAAA into BAA. Supernatant was subsequently removed by centrifugation as described above, then ALDEFLUOR™ buffer (3 μl) was dispensed by Multidrop Combi before imaging on an IN Cell 2200 (GE Healthcare).
The above assay was modified for an online robotic screening system. After cell plating and overnight incubation, 4 μL of media were removed using a 64-tip metal aspirator head on a Wako aspirator station, leaving 1 μL remaining in the well, followed by a 4 μL dispense of BAAA and Hoechst 33342 in ALDEFLUOR™ buffer, for a final concentration of 500 nM and 0.5 nM, respectively Immediately following the dispense, 23 nL of compound or control solutions were transferred using a Wako Pin-tool. Cells were incubated for 30 minutes at 37° C., 5% CO2, 85% RH, followed by a 4 μL media removal using the Wako aspirator, and a subsequent 3 μL addition of ALDEFLUOR™ buffer. Plates were then immediately read on the IN Cell 2200 as described below.
Image Acquisition and Analysis
For images captured on the IN Cell 2200 widefield automated microscope, a 10×0.45 NA Plan Apo objective lens was used to capture the entire well of the 1,536-well plate using standard DAPI (390/18×, 432/48 m) and FITC (475/28×, 525/48 m) filter sets at 50 msec and 100 msec exposures, respectively. Images were subsequently analyzed using IN Cell Investigator v1.6.2 analysis software's canned Multi-Target Analysis algorithm (GE Healthcare). Hoechst stained nuclei were identified using top hat segmentation with a minimum area of 75 μm^2 and sensitivity of 93. BAA-retaining cells captured via FITC channel, were identified using multiscale top hat segmentation with a minimum area of 100 μm^2 and a sensitivity setting of 16. […] Data were plotted using GraphPad Prism software (GraphPad, San Diego, Calif.).

| Compound | IC50 [µM] |
| --- | --- |
| CN(C)C(=O)N1CCN(C(=O)c2cnc3ccc(F)cc3c2N2CCC(C)(C#N)CC2)CC1 [Example 182, 4-(4-(4-cyano-4-methylpiperidin-1-yl)-6-fluoroquinoline-3-carbonyl)-N,N-dimethylpiperazine-1-carboxamide] | 1 to 10 |
| CC1(C#N)CCN(c2c(C(=O)N3CCC(C(=O)C4CC4)CC3)cnc3ccc(F)cc23)CC1 [Example 194, 1-(3-(4-(cyclopropanecarbonyl)piperidine-1-carbonyl)-6-fluoroquinolin-4-yl)-4-methylpiperidine-4-carbonitrile] | 1 to 10 |
| CS(=O)(=O)N1CCN(C(=O)c2cnc3ccc(F)cc3c2N2CCC3(CC2)CC(=O)c2ccccc23)CC1 [Example 199, 1′-(6-fluoro-3-(4-(methylsulfonyl)piperazine-1-carbonyl)quinolin-4-yl)spiro[indene-1,4′-piperidin]-3(2H)-one] | 1 to 10 |
| O=C(c1cnc2ccc(F)cc2c1N1CCC(Cc2ccccc2)CC1)N1CCN(C(=O)C2CC2)CC1 [Example 200, (4-(4-benzylpiperidin-1-yl)-6-fluoroquinolin-3-yl)(4-(cyclopropanecarbonyl)piperazin-1-yl)methanone] | > 10 |
| CS(=O)(=O)N1CCN(C(=O)c2cnc3ccc(F)cc3c2N2CCC3(CC2)Cc2ccccc2C3=O)CC1 [Example 201, 1′-(6-fluoro-3-(4-(methylsulfonyl)piperazine-1-carbonyl)quinolin-4-yl)spiro[indene-2,4′-piperidin]-1(3H)-one] | 1 to 10 |
| Cn1ncc2c(N3CCC(C)(C#N)CC3)c(C(=O)N3CCN(S(C)(=O)=O)CC3)cnc21 [Example 206, 4-methyl-1-(1-methyl-5-(4-(methylsulfonyl)piperazine-1-carbonyl)-1H-pyrazolo[3,4-b]pyridin-4-yl)piperidine-4-carbonitrile] | 1 to 10 |
| N#CC1(c2ccccc2)CCN(c2c(C(=O)N3CCN(C(=O)C4CC4)CC3)cnc3ccc(F)cc23)CC1 [Example 208, 1-(3-(4-(cyclopropanecarbonyl)piperazine-1-carbonyl)-6-fluoroquinolin-4-yl)-4-phenylpiperidine-4-carbonitrile] | < 0.5 |
| CS(=O)(=O)N1CCN(C(=O)c2cnc3ccc(F)cc3c2-c2ccc(C3(C#N)CC3)cc2)CC1 [Example 210, 1-(4-(6-fluoro-3-(4-(methylsulfonyl)piperazine-1-carbonyl)quinolin-4-yl)phenyl)cyclopropanecarbonitrile] | < 0.5 |
| CC(C)(C#N)c1ccc(-c2c(C(=O)N3CCN(S(C)(=O)=O)CC3)cnc3ccc(F)cc23)cc1 [Example 211, 2-(4-(6-fluoro-3-(4-(methylsulfonyl)piperazine-1-carbonyl)quinolin-4-yl)phenyl)-2-methylpropanenitrile] | < 0.5 |
| CC(=O)C1(c2ccccc2)CCN(c2c(C(=O)N3CCN(S(C)(=O)=O)CC3)cnc3ccc(F)cc23)CC1 [Example 216, 1-(1-(6-fluoro-3-(4-(methylsulfonyl)piperazine-1-carbonyl)quinolin-4-yl)-4-phenylpiperidin-4-yl)ethanone] | < 0.5 |
| CC1(C#N)CCN(c2c(C(=O)N3CCN(S(C)(=O)=O)CC3)cnc3sccc23)CC1 [Example 217, 4-methyl-1-(5-(4-(methylsulfonyl)piperazine-1-carbonyl)thieno[2,3-b]pyridin-4-yl)piperidine-4-carbonitrile] | 1 to 10 |
| CC1(C#N)CCN(c2c(C(=O)N3CCN(C(=O)C4CC4)CC3)cnc3sccc23)CC1 [Example 219, 1-(5-(4-(cyclopropanecarbonyl)piperazine-1-carbonyl)thieno[2,3-b]pyridin-4-yl)-4-methylpiperidine-4-carbonitrile] | 1 to 10 |
| C=CS(=O)(=O)N1CCN(c2c(C(=O)N3CCN(S(C)(=O)=O)CC3)cnc3ccc(F)cc23)CC1 [Example 221, (6-fluoro-4-(4-(vinylsulfonyl)piperazin-1-yl)quinolin-3-yl)(4-(methylsulfonyl)piperazin-1-yl)methanone] | 1 to 10 |
| CC1(C#N)CCN(c2c(C(=O)N3CCN(S(C)(=O)=O)C(C)(C)C3)cnc3ccc(F)cc23)CC1 [Example 229, 1-(3-(3,3-dimethyl-4-(methylsulfonyl)piperazine-1-carbonyl)-6-fluoroquinolin-4-yl)-4-methylpiperidine-4-carbonitrile] | > 10 |
| CC1(C#N)CCN(c2c(C(=O)N3CCN(C(=O)C4CC4)CC3)cnc3ccsc23)CC1 [Example 233, 1-(6-(4-(cyclopropanecarbonyl)piperazine-1-carbonyl)thieno[3,2-b]pyridin-7-yl)-4-methylpiperidine-4-carbonitrile] | 0.5 to 1 |
| CC1(C#N)CCN(c2c(C(=O)N3CCN(S(C)(=O)=O)CC3)cnc3ccsc23)CC1 [Example 234, 4-methyl-1-(6-(4-(methylsulfonyl)piperazine-1-carbonyl)thieno[3,2-b]pyridin-7-yl)piperidine-4-carbonitrile] | 1 to 10 |

Now from value to compound:

| IC50 [µM] | Compound |
| --- | --- |
| 1 to 10 | CCS(=O)(=O)N1CCN(C(=O)c2cnc3ccc(F)cc3c2N2CCC(C)(C#N)CC2)CC1 [Example 156, 1-(3-(4-(ethylsulfonyl)piperazine-1-carbonyl)-6-fluoroquinolin-4-yl)-4-methylpiperidine-4-carbonitrile] |
| < 0.5 | CN(C)S(=O)(=O)N1CCN(C(=O)c2cnc3ccc(F)cc3c2N2CCC(C)(C#N)CC2)CC1 [Example 157, 4-(4-(4-cyano-4-methylpiperidin-1-yl)-6-fluoroquinoline-3-carbonyl)-N,N-dimethylpiperazine-1-sulfonamide] |
| 1 to 10 | CC1(C#N)CCN(c2c(C(=O)N3CCC(S(C)(=O)=O)CC3)cnc3ccc(F)cc23)CC1 [Example 188, 1-(6-fluoro-3-(4-(methylsulfonyl)piperidine-1-carbonyl)quinolin-4-yl)-4-methylpiperidine-4-carbonitrile] |
| < 0.5 | CCC1(C#N)CCN(c2c(C(=O)N3CCN(S(C)(=O)=O)CC3)cnc3ccc(F)cc23)CC1 [Example 197, 4-ethyl-1-(6-fluoro-3-(4-(methylsulfonyl)piperazine-1-carbonyl)quinolin-4-yl)piperidine-4-carbonitrile] |
| < 0.5 | CCC1(C#N)CCN(c2c(C(=O)N3CCN(C(=O)C4CC4)CC3)cnc3ccc(F)cc23)CC1 [Example 202, 1-(3-(4-(cyclopropanecarbonyl)piperazine-1-carbonyl)-6-fluoroquinolin-4-yl)-4-ethylpiperidine-4-carbonitrile] |
| < 0.5 | CS(=O)(=O)N1CCN(C(=O)c2cnc3ccc(F)cc3c2N2CCC(C#N)(c3ccccc3)CC2)CC1 [Example 209, 1-(6-fluoro-3-(4-(methylsulfonyl)piperazine-1-carbonyl)quinolin-4-yl)-4-phenylpiperidine-4-carbonitrile] |
| 1 to 10 | C[C@@H]1CN(C(=O)c2cnc3ccc(F)cc3c2N2CCC(C)(C#N)CC2)CCN1S(C)(=O)=O [Example 223, (R)-1-(6-fluoro-3-(3-methyl-4-(methylsulfonyl)piperazine-1-carbonyl)quinolin-4-yl)-4-methylpiperidine-4-carbonitrile] |
| 1 to 10 | C[C@H]1CN(C(=O)c2cnc3ccc(F)cc3c2N2CCC(C)(C#N)CC2)CCN1S(C)(=O)=O [Example 226, (S)-1-(6-fluoro-3-(3-methyl-4-(methylsulfonyl)piperazine-1-carbonyl)quinolin-4-yl)-4-methylpiperidine-4-carbonitrile] |
